Test results reported in patent publication US9585380B2, “SSAT mRNA translation repression and activation” (TEMPLE UNIVERSITY—Of The Commonwealth System of Higher …, priority 2011, dated 2017).

Experiments:
SSAT translation [1] = test: Reporter system: 5′ UTR lacking uORFs + SSAT coding sequence-luciferase chimeric construct in HEK293T cells; type: cell-based, human; details: wild-type SSAT-luciferase construct, luciferase 16 hours after addition, compared to untreated
Procedure: A chimeric construct (FIG. 15A) comprising a fragment of the 5′ UTR of SSAT lacking the uORF's (see FIG. 7), the SSAT coding sequence (see FIG. 8B), and the luciferase coding sequence was prepared. The SSAT coding sequence is linked in-frame to the luciferase coding sequence. The construct was prepared using appropriate primers and template nucleic acid, and conventional PCR methods. The construct was cloned into pLEX-MCS. To evaluate the effect of small molecules on translation of the chimeric construct, the chimeric construct was transiently transfected into HEK293T cells. The small molecule to be tested was added 24 hours after transfection of the vector. Luciferase activity was evaluated 16 hours after the addition of the small molecule using the ONE-Glo™ Luciferase Assay System (Promega, Madison, Wis.). The luminescence intensity was determined using a GloMax® luminometer (Promega).
In view of the discovery of the contribution of uORF's on translational repression of SSAT mRNA, a reporter system was developed to detect pharmacophores that can modulate SSAT translation. The reporter system is a chimeric construct comprising a 5′ UTR lacking the uORF's and the SSAT coding sequence linked in-frame to the luciferase coding sequence. (FIG. 15A). The 5′ UTR comprises 66 nucleotides of the native 5′UTR immediately upstream of the starting AUG codon.
Release of translational repression of the chimeric construct was tested in the presence of several small molecules. Release of translational repression was assessed by detection of luciferase activity. The small molecules tested were: DENSPM and three uncharacterized polyamine analogs designated polyamine analog 1; polyamine analog 2; and polyamine analog 3. Cisplatin and 5-FU were tested as negative controls.

nucleolin = details: HEK293T exposed to 2 mM spermine for 12 hours versus controls
Procedure: In addition, a sample of RNA-interacting proteins obtained from a Sepharose-streptomycin-chimeric RNA column described above was subjected to the same 2DE separation. The sample was initially concentrated to 30 μL using a Nanosep 3000 (Pall Corp) and dialyzed with 0.1×PBS for 12 h using a Slide-A-Lyzer 7K mini unit (Pierce Biotech). After separation by 2DE, the proteins were transferred to a nitrocellulose membrane using a Mini Trans Blot System (Biorad) and were Western blotted using anti-nucleolin monoclonal antibody.

SSAT translation [2] = system: SSAT translation
SSAT translation [3] = test: DENSPM dose response curve with mutant 6 chimeric construct; type: cell-based, human; details: mutant 6 construct, DENSPM 0.08 μM to 40 μM, HEK293T
Procedure: The chimeric construct to be tested was transiently transfected into HEK293T cells. Twenty-four hours after transfection of the vector, DENSPM was added to the desired final concentration (ranged from 0.08 micromolar to 40 micromolar). Luciferase activity was evaluated 16 hours after the addition of DENSPM using the ONE-Glo™ Luciferase Assay System. The luminescence intensity was determined using a GloMax® luminometer (Promega). The experiment was run in triplicates to obtain error bars and evaluate reproducibility.
A dose response experiment was performed using the mutant 6 chimeric construct. Specifically, the stimulation of mutant 6 translation by ten different concentrations of DENSPM was assayed. The DENSPM concentrations ranged from 0.08 micromolar (μM) to 40 μM. The dose response curve is depicted in FIG. 20.

SMILES | Release of translational repression of the chimeric construct (luciferase activity) (SSAT translation [1]) | 55 KDa nucleolin isoform (2D-PAGE Western blot) (nucleolin) | SSAT expression (Western blot) (SSAT translation [2]; constructs with or without uORFs, presence of spermine) | Repression of eGFP expression by the SSAT stem loop (Loop eGFP, Western blot) (SSAT translation [2]; exogenous spermine, HEK293T) | Dose dependency of stimulation of translation of SSAT mRNA having CGC encoding Arg142 (SSAT translation [3])
O=c1[nH]cc(F)c(=O)[nH]1 [Mutant 5-FU, 5-FU] | about the same as in the absence of a small molecule |  |  |  | 
N.N.[Cl][Pt][Cl] [cisplatin, Cisplatin] | about the same as in the absence of a small molecule |  |  |  | 
NCCCNCCCCNCCCN [spermine] |  | absent | stimulated expression | partially reversed | 
CCNCCCNCCCNCCCNCC [DENSPM, N^1-N^11 diethylnorspermine] | relieved |  |  |  | dose dependency over at least two orders of magnitude
